In ChEMBL document CHEMBL4825668, “Discovery of Novel Pyrimidine-Based Capsid Assembly Modulators as Potent Anti-HBV Agents” (J Med Chem, 2021):
Activity calls are given as the source filed them. No cut-off for these calls is given here.

Experiments:
[1] = biological target: T1, CYP1A2 (Homo sapiens, UniProt P05177); assay: Inhibition of human recombinant CYP1A2 using alpha-naphthoflavone […] at 10 uM by fluorometric assay; type: ADME
T1 sequence (P05177 whole entry): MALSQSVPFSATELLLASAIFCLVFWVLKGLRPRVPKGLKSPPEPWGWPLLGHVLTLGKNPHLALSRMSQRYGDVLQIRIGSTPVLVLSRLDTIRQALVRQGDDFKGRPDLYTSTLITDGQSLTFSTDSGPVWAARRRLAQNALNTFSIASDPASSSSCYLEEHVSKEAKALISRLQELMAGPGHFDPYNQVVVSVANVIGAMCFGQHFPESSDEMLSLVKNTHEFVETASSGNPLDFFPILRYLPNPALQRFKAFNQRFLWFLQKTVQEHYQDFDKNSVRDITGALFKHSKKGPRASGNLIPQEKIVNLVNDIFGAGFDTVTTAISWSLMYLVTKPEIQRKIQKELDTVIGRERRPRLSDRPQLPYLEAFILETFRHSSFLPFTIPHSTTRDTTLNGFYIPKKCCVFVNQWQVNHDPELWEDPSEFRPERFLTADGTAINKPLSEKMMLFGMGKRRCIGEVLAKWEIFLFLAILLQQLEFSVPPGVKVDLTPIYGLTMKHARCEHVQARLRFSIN

[2] = biological target: CYP2C19 (Homo sapiens, UniProt P33261); assay: Inhibition of human recombinant CYP2C19 using amitriptyline […] at 10 uM by fluorometric assay; type: ADME
CYP2C19, sequence (P33261 whole entry): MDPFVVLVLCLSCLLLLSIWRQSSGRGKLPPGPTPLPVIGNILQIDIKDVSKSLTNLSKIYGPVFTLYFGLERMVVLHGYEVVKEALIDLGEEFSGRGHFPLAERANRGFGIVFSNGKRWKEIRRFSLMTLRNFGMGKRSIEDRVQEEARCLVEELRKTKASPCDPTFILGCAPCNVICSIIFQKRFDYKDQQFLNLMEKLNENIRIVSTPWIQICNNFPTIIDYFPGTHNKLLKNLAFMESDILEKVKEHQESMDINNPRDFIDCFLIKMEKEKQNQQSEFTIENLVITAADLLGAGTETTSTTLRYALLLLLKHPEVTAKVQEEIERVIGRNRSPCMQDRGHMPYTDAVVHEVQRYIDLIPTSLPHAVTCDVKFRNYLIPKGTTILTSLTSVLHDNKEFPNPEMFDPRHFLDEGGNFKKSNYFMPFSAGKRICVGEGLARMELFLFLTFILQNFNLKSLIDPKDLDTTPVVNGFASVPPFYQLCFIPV

[3] = Metabolic stability in rat liver microsomes assessed as compound remaining at […] incubated for 30 mins by LC/MS/MS analysis; type: ADME, Microsome; conditions: read-out: Stabilty
[4] = Toxicity in BALB/c mouse assessed as changes in blood up to 400 mg/kg, po for 2 weeks; type: organism-based; conditions: in vivo, 336 h
[5] = Metabolic stability in mouse liver microsomes assessed as compound remaining at […] incubated for 30 mins by LC/MS/MS analysis; type: ADME, Microsome; conditions: read-out: Stabilty
[6] = biological target: CYP2C9 (Homo sapiens, UniProt P11712); assay: Inhibition of human recombinant CYP2C9 using sulfaphenazole […] at 10 uM by fluorometric assay; type: ADME
CYP2C9, sequence (P11712 whole entry): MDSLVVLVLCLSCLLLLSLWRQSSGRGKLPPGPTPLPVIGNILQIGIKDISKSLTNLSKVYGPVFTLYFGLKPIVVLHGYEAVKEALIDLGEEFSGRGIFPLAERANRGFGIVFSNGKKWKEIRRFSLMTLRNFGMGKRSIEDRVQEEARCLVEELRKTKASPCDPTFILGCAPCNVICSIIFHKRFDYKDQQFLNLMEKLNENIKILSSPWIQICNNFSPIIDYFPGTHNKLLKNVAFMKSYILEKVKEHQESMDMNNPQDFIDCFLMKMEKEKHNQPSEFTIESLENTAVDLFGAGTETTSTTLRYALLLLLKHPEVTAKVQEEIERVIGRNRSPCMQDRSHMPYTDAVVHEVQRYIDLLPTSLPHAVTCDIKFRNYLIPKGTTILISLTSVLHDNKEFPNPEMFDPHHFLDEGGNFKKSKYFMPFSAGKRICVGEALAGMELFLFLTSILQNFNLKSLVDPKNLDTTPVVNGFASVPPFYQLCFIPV

[7] = biological target: Voltage-gated inwardly rectifying potassium channel KCNH2 (Homo sapiens, UniProt Q12809); assay: Inhibition of human ERG expressed in HEK cells at -80 mV holding potential by patch clamp assay relative to control; type: cell-based
Voltage-gated inwardly rectifying potassium channel KCNH2, sequence (Q12809 whole entry): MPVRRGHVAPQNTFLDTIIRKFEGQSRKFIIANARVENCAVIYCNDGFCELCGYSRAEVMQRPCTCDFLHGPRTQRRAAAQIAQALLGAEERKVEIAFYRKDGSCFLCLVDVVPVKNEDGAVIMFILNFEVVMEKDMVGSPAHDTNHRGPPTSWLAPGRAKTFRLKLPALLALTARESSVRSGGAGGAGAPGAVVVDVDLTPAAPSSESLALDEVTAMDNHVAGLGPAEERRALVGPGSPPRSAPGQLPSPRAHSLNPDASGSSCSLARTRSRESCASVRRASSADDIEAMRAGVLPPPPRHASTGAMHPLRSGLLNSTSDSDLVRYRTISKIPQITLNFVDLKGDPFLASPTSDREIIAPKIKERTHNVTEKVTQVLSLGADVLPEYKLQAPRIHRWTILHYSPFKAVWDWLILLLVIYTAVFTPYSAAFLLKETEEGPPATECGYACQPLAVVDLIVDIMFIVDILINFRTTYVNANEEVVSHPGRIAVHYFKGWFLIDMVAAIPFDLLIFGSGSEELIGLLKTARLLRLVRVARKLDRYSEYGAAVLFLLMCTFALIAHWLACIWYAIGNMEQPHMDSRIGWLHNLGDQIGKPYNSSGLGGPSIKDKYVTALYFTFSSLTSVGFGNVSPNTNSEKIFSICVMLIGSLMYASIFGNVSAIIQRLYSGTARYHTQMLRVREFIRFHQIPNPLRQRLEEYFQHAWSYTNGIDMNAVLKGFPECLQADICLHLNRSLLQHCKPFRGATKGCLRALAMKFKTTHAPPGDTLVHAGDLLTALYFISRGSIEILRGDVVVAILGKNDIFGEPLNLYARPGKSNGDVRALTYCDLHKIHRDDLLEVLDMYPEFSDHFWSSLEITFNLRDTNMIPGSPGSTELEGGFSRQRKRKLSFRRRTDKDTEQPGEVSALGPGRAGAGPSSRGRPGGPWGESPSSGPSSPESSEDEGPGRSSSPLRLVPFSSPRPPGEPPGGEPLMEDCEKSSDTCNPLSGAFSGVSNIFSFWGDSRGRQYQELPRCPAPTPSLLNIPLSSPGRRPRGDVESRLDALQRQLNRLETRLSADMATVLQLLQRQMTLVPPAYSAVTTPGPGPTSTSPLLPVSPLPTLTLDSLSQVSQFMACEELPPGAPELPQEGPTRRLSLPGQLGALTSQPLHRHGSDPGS

[8] = test system: Hepatitis B virus; assay: Antiviral activity against Human hepatitis B virus in Huh-7 cells assessed as reduction in intracellular viral DNA level incubated for 36 hrs by qPCR analysis; type: functional, organism-based; conditions: Huh-7, 36 h
[9] = biological target: hERG (KCNH2) (Homo sapiens, UniProt Q12809); assay: Inhibition of human ERG at 40 uM incubated for 2 to 3 hrs by ligand binding assay
hERG (KCNH2), sequence (Q12809 whole entry): as above

[10] = Toxicity in BALB/c mouse assessed as changes in urine up to 400 mg/kg, po for 2 weeks; type: organism-based; conditions: in vivo, 336 h
[11] = Permeability of the compound at pH 7.4 by PAMPA; type: ADME
[12] = biological target: CYP3A4 (Homo sapiens, UniProt P08684); assay: Inhibition of human recombinant CYP3A4 using ketoconazole […] at 10 uM by fluorometric assay; type: ADME
CYP3A4, sequence (P08684 whole entry): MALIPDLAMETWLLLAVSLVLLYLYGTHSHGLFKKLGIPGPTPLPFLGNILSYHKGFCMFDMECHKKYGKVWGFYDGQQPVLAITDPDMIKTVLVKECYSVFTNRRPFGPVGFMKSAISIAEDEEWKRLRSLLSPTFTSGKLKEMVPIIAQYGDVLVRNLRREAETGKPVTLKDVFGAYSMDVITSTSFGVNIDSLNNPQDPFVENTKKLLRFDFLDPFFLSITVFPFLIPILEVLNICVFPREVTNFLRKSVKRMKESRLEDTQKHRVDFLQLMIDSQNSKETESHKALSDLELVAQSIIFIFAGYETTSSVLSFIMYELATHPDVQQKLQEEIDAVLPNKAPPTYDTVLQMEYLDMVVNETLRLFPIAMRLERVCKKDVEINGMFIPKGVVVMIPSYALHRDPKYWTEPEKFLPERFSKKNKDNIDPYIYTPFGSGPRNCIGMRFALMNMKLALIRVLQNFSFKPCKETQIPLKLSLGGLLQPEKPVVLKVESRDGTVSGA

[13] = Mutagenicity in Salmonella typhimurium in presence of S9 fraction by Ames test; type: toxicity, subcellular; conditions: salmonella enterica subsp. enterica serovar typhimurium
[14] = Metabolic stability in human liver microsomes assessed as compound remaining at […] incubated for 30 mins by LC/MS/MS analysis; type: ADME, Microsome; conditions: read-out: Stabilty
[15] = biological target: CYP2D6 (Homo sapiens, UniProt P10635); assay: Inhibition of human recombinant CYP2D6 using quinidine […] at 10 uM by fluorometric assay; type: ADME
CYP2D6, sequence (P10635 whole entry): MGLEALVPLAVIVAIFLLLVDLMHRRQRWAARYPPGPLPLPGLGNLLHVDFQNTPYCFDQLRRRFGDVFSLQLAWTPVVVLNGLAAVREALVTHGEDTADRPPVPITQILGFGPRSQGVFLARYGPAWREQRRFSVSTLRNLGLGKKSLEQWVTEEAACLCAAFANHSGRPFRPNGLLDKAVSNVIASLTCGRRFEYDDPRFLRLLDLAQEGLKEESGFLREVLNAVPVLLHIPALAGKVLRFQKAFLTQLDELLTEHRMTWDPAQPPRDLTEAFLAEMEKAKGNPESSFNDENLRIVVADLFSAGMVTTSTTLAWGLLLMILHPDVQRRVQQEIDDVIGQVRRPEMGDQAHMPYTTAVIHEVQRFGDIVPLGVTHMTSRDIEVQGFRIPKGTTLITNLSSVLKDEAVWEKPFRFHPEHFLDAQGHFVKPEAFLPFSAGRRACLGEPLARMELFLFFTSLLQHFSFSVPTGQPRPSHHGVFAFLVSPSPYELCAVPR

[16] = test system: Hepatitis B virus; assay: Antiviral activity against Human hepatitis B virus infected in hydrodynamic injection C57BL/6 mouse model assessed as reduction in serum HBsAg up to 120 mg/kg, po daily by ELISA; type: functional, organism-based; conditions: dose mg/kg <=120
[17] = test system: Hepatitis B virus; assay: Antiviral activity against Human hepatitis B virus infected in humanized liver uPA SCID mouse model assessed as change in serum HBeAg at 40 mg/kg, po daily measured every week by ELISA; type: functional, organism-based
[18] = test system: Hepatitis B virus; assay: Antiviral activity against Human hepatitis B virus in Huh-7 cells assessed as reduction in HBsAg level by ELISA; type: functional, organism-based
[19] = test system: Huh-7; assay: Inhibition of HBV recombinant Cp149 expressed in Huh-7 cells assessed as assembled HBV core protein fraction at 1 uM incubated for 1 hr by sucrose gradient analysis; type: cell-based; conditions: Hepatitis B virus
[20] = test system: Hepatitis B virus; assay: Antiviral activity against Human hepatitis B virus infected in hydrodynamic injection C57BL/6 mouse model assessed as reduction in viral DNA in serum up to 120 mg/kg, po daily measured after 5 days by qPCR analysis; type: functional, organism-based; conditions: dose mg/kg <=120, time 5.0 day
[21] = test system: Hepatitis B virus; assay: Antiviral activity against Human hepatitis B virus in Huh-7 cells assessed as decrease in intracellular viral DNA accumulation incubated for 36 hrs by qPCR analysis; type: functional, organism-based
[22] = test system: Hepatitis B virus; assay: Antiviral activity against Human hepatitis B virus in Huh-7 cells assessed as decrease in viral DNA level incubated for 36 hrs by qPCR analysis; type: functional, organism-based
[23] = test system: Hepatitis B virus; assay: Inhibition of HBV recombinant Cp149 expressed in Escherichia coli BL21 (DE3) assessed as inhibition of capsid assembly at 1 uM incubated for 1 hr by immune blotting analysis relative to control
[24] = test system: Huh-7; assay: Inhibition of HBV recombinant Cp149 expressed in Huh-7 cells assessed as inhibition of secretion of particles containing viral DNA at 1 uM incubated for 1 hr by immunoblot analysis; type: cell-based; conditions: Hepatitis B virus
[25] = test system: Hepatitis B virus; assay: Antiviral activity against Human hepatitis B virus infected in humanized liver uPA SCID mouse model assessed as decrease in serum viral DNA at 40 mg/kg, po daily measured every week by qPCR analysis; type: functional, organism-based
[26] = test system: Hepatitis B virus; assay: Inhibition of HBV recombinant Cp149 expressed in Escherichia coli BL21 (DE3) assessed as inhibition of capsid assembly at 0.1 uM incubated for 1 hr by immune blotting analysis relative to control
[27] = test system: Hepatitis B virus; assay: Antiviral activity against Human hepatitis B virus infected in humanized liver uPA SCID mouse model assessed as change in serum HBsAg at 40 mg/kg, po daily measured every week by ELISA; type: functional, organism-based
[28] = test system: Hepatitis B virus; assay: Antiviral activity against Human hepatitis B virus infected in humanized liver uPA SCID mouse model assessed as reduction in HBV core protein at 40 mg/kg, po daily measured after 35 days by immunohistochemical analysis; type: functional, organism-based; conditions: time 35.0 day
[29] = AUC(infinity) in ICR mouse at 10 mg/kg, po measured after 1440 mins by HPLC analysis; type: ADME, organism-based; design: route oral, dose 10 mg/kg, time 1440 min; conditions: in vivo
[30] = AUC(infinity) in ICR mouse at 5 mg/kg, iv measured after 1440 mins by HPLC analysis; type: ADME, organism-based; design: route intravenous, time 1440 min, dose 5 mg/kg; conditions: in vivo
[31] = AUClast in ICR mouse at 5 mg/kg, iv measured after 1440 mins by HPLC analysis; type: ADME, organism-based; design: route intravenous, dose 5 mg/kg, time 1440 min; conditions: in vivo
[32] = Tmax in ICR mouse at 10 mg/kg, po measured after 1440 mins by HPLC analysis; type: ADME, organism-based; conditions: in vivo
[33] = Half life in ICR mouse at 5 mg/kg, iv measured after 1440 mins by HPLC analysis; type: ADME, organism-based; conditions: in vivo
[34] = Cmax in ICR mouse at 5 mg/kg, iv measured after 1440 mins by HPLC analysis; type: ADME, organism-based; design: route intravenous, dose 5 mg/kg, time 1440 min; conditions: in vivo
[35] = AUClast in ICR mouse at 10 mg/kg, po measured after 1440 mins by HPLC analysis; type: ADME, organism-based; design: route oral, time 1440 min, dose 10 mg/kg; conditions: in vivo
[36] = Half life in ICR mouse at 10 mg/kg, po measured after 1440 mins by HPLC analysis; type: ADME, organism-based; conditions: in vivo
[37] = Clearance in ICR mouse at 5 mg/kg, iv measured after 1440 mins by HPLC analysis; type: ADME, organism-based; conditions: in vivo
[38] = Volume of distribution at steady state in ICR mouse at 5 mg/kg, iv measured after 1440 mins by HPLC analysis; type: ADME, organism-based; conditions: in vivo, read-out: Vdss
[39] = Oral bioavailability in ICR mouse at 10 mg/kg measured after 1440 mins by HPLC analysis; type: ADME, organism-based; conditions: in vivo
[40] = Cmax in ICR mouse at 10 mg/kg, po measured after 1440 mins by HPLC analysis; type: ADME, organism-based; design: route oral, dose 10 mg/kg, time 1440 min; conditions: in vivo
[41] = Volume of distribution at steady state in ICR mouse at 10 mg/kg, iv measured after 1440 mins by HPLC analysis; type: ADME, organism-based; conditions: in vivo, read-out: Vdss
[42] = Half life in ICR mouse at 10 mg/kg, iv measured after 1440 mins by HPLC analysis; type: ADME, organism-based; conditions: in vivo
[43] = AUClast in ICR mouse at 10 mg/kg, iv measured after 1440 mins by HPLC analysis; type: ADME, organism-based; design: route intravenous, dose 10 mg/kg, time 1440 min; conditions: in vivo
[44] = AUC(infinity) in ICR mouse at 10 mg/kg, iv measured after 1440 mins by HPLC analysis; type: ADME, organism-based; design: route intravenous, time 1440 min, dose 10 mg/kg; conditions: in vivo
[45] = Clearance in ICR mouse at 10 mg/kg, iv measured after 1440 mins by HPLC analysis; type: ADME, organism-based; conditions: in vivo

## CS(=O)(=O)c1nc(Nc2ccc(F)c(Cl)c2)cc(NC2CCC(N)CC2)n1 (stereo unspecified) [listing 1 of 2 here]
[1]
  inhibition at 10 µM: 37.2%
[2]
  inhibition at 10 µM: 71.4%
[3]
  remaining at 0.5 h: 82%
[4]
  Activity: Non-Toxic
[5]
  remaining at 0.5 h: 79.6%
[6]
  inhibition at 10 µM: 51.8%
[7]
  IC50: 19.8 µM
[8]
  IC50: 0.181 µM
[9]
  inhibition at 40 µM: 76.6%
[10]
  Activity: Non-Toxic
[11]
  log(permeability): -5.15
[12]
  inhibition at 10 µM: 44%
[13]
  Activity: Non-Toxic
[14]
  remaining at 0.5 h: 81.7%
[15]
  inhibition at 10 µM: 21.7%

## CS(=O)(=O)c1nc(Nc2ccc(F)c(Cl)c2)cc(NC2CCC(N)CC2)n1 (stereo unspecified) [listing 2 of 2 here]
[16]
  Activity: Active
[17]
  Activity: Active
[18]
  Activity: inactive
[19]
  inhibition: Active
[20]
  Activity: Dose-Dependent Effect
[21]
  Activity: Active
[22]
  Activity: Active
[23]
  inhibition: 99%
[24]
  inhibition: Active
[25]
  Activity: Active
[26]
  inhibition: 52%
[27]
  Activity: Active
[28]
  Activity: Active

## CS(=O)(=O)c1nc(Nc2ccc(F)c(Cl)c2)cc(NC2CCC(N)CC2)n1.Cl (stereo unspecified)
[29]
  AUC(0-inf): 270 ng·h/mL
[30]
  AUC(0-inf): 2410 ng·h/mL
[31]
  AUC(0-t) at 24 h: 2110 ng·h/mL
[32]
  Tmax: 1.8 h
[33]
  half-life: 4.8 h
[34]
  Cmax: 9780 ng/mL
[35]
  AUC(0-t) at 24 h: 203 ng·h/mL
[36]
  half-life: 6.3 h
[37]
  clearance: 36.7 mL/min/kg
[38]
  Vd: 5.4 L/kg
[39]
  bioavailability: 4.8%
[40]
  Cmax: 28.3 ng/mL

## CS(=O)(=O)c1nc(Nc2ccc(F)c(Cl)c2)cc(N2CCNCC2)n1.Cl
[29]
  AUC(0-inf): 107 ng·h/mL
[32]
  Tmax: 0.5 h
[41]
  Vd: 10.9 L/kg
[42]
  half-life: 3.3 h
[35]
  AUC(0-t) at 24 h: 131 ng·h/mL
[43]
  AUC(0-t) at 24 h: 2370 ng·h/mL
[36]
  half-life: 7.8 h
[44]
  AUC(0-inf): 2330 ng·h/mL
[39]
  bioavailability: 4.6%
[40]
  Cmax: 25 ng/mL
[45]
  clearance: 70.8 mL/min/kg
